Assay results as given in patent US4486593A, “2-,3-, or 4-Pyridinylmethylamino arylic acids as thromboxane A2 synthetase and 5-lipoxygenase inhibitors” (The Upjohn Company, priority 1983, dated 1984).

System: 5-lipoxygenase
Assay: 5-lipoxygenase inhibition: oxygen uptake of washed human platelets after arachidonic acid (oxygraph cells)
Assay type: cell-based
Settings: arachidonic acid added to washed human platelets; oxygen uptake versus control cell; read-out: approximate ED50, 5-lipoxygenase inhibition (decrease of oxygen uptake)
Experimental: The compounds of the present invention were also tested for 5-lipoxygenase inhibition. Arachidonic acid is added to washed human platlets and the oxygen uptake is measured using oxygraph cells. A decrease of oxygen uptake versus the control cell indicates inhibition of lipoxygenase. For a fuller description of the procedure see, Wallach, et al., Biochim. Biophys. Acta. 231:445 (1976).

IC50: ~10 µM
Compound: COC(=O)c1cc(NCc2cccnc2)ccc1O [Example 3, 5-(3-Pyridinylmethylamino)salicylic Acid, Methyl Ester]
